{
  "source": "ChEMBL document CHEMBL4680347",
  "about": "“Discovery of novel 1,3,5-triazine derivatives as potent inhibitor of cervical cancer via dual inhibition of PI3K/mTOR” (Bioorg Med Chem, 2021)",
  "key": {"HeLa [1]": {"system": "HeLa", "assay": "Inhibition of PI3K/AKT pathway in human HeLa cells assessed as reduction phosphorylated Akt level upto 12 uM by Western blot analysis", "assay_type": "cell-based", "settings": "dose microM <=12"}, "Mus musculus [2]": {"system": "Mus musculus", "assay": "Reduction in p-mTOR levels in BALB/c mouse tumor xenografted with human HeLa cells at 5 to 15 mg/kg, po by Western blot analysis", "assay_type": "functional, organism-based", "settings": "Neoplasm, dose 5-15 mg/kg"}, "HeLa [3]": {"system": "HeLa", "assay": "Induction of cell cycle arrest in human HeLa cells assessed as accumulation at G1 phase at 8 uM after 24 hrs by RNase A/PI-staining based flow cytometric analysis (reference value: 52.21%)", "assay_type": "functional"}, "HeLa [4]": {"system": "HeLa", "assay": "Induction of cell cycle arrest in human HeLa cells assessed as accumulation at S phase at 8 uM after 24 hrs by RNase A/PI-staining based flow cytometric analysis (reference value: 17.17%)", "assay_type": "functional"}, "HeLa [5]": {"system": "HeLa", "assay": "Induction of apoptosis in human HeLa cells assessed as early apoptotic cells at 12 uM measured after 24 hrs by Annexin-V/FITC and propidium iodide staining based flow cytometry (reference value: 1.60%)", "assay_type": "functional"}, "[6]": {"target": "Serine/threonine-protein kinase mTOR (Homo sapiens, UniProt P42345)", "assay": "Inhibition of mTOR (unknown origin) measured after 45 mins by LANCE Ultra assay"}, "HeLa [7]": {"system": "HeLa", "assay": "Inhibition of cell invasion in human HeLa cells incubated for 24 hrs by crystal violet staining based transwell assay", "assay_type": "functional", "settings": "dose 4-12 µM"}, "HeLa [8]": {"system": "HeLa", "assay": "Induction of cell cycle arrest in human HeLa cells assessed as accumulation at G1 phase at 12 uM after 24 hrs by RNase A/PI-staining based flow cytometric analysis (reference value: 52.21%)", "assay_type": "functional"}, "Mus musculus [9]": {"system": "Mus musculus", "assay": "Reduction in p-AKT levels in BALB/c mouse tumor xenografted with human HeLa cells at 5 to 15 mg/kg, po by Western blot analysis", "assay_type": "functional, organism-based", "settings": "Neoplasm, dose 5-15 mg/kg"}, "HeLa [10]": {"system": "HeLa", "assay": "Induction of apoptosis in human HeLa cells assessed as reduction in BAX level upto 12 uM by Western blot analysis", "assay_type": "functional, cell-based", "settings": "dose microM <=12"}, "HeLa [11]": {"system": "HeLa", "assay": "Anticancer activity against human HeLa cells assessed as inhibition of cell proliferation measured after 48 hrs by MTT assay", "assay_type": "functional, cell-based"}, "[12]": {"target": "Phosphatidylinositol 4,5-bisphosphate 3-kinase catalytic subunit gamma isoform (Homo sapiens, UniProt P48736)", "sequence (P48736 whole entry, canonical isoform)": "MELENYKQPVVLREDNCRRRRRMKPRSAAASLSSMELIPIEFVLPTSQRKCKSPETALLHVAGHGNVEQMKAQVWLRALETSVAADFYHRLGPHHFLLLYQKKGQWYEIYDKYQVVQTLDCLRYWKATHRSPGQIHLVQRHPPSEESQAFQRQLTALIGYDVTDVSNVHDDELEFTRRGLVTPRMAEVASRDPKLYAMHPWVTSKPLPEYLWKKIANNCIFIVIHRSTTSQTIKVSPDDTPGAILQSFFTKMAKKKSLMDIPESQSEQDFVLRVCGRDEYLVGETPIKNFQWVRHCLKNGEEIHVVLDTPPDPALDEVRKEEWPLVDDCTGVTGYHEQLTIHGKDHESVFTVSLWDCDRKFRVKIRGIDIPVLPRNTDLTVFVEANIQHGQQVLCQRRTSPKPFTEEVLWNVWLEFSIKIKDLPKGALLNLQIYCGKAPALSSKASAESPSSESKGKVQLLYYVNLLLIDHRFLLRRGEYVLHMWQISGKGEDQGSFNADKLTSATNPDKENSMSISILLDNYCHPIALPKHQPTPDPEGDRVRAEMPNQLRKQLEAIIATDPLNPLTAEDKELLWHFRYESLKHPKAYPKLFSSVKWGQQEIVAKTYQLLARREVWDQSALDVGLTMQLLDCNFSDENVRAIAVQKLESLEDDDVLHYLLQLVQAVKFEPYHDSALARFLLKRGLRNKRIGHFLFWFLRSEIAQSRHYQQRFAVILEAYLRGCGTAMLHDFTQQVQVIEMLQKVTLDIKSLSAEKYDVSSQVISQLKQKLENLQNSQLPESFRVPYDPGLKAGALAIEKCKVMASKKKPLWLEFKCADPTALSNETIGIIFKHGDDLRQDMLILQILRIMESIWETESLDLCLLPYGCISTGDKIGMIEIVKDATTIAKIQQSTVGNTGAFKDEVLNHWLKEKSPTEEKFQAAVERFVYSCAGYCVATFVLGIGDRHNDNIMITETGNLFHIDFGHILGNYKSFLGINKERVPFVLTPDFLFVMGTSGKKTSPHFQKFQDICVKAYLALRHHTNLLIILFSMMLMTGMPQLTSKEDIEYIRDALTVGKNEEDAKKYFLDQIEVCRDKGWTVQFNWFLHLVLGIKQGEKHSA", "assay": "Inhibition of PI3Kgamma (unknown origin) measured after 1 hr by ADP-glo plus luminescence assay"}, "Mus musculus [13]": {"system": "Mus musculus", "assay": "Reduction in p-PI3K levels in BALB/c mouse tumor xenografted with human HeLa cells at 5 to 15 mg/kg, po by Western blot analysis", "assay_type": "functional, organism-based", "settings": "Neoplasm, dose 5-15 mg/kg"}, "MCF7": {"system": "MCF7", "assay": "Anticancer activity against human MCF-7 cells assessed as inhibition of cell proliferation measured after 48 hrs by MTT assay", "assay_type": "functional, cell-based", "settings": "MCF7, 48 h"}, "HeLa [14]": {"system": "HeLa", "assay": "Induction of cell cycle arrest in human HeLa cells assessed as accumulation at G2 phase at 12 uM after 24 hrs by RNase A/PI-staining based flow cytometric analysis (reference value: 30.62%)", "assay_type": "functional"}, "HeLa [15]": {"system": "HeLa", "assay": "Induction of apoptosis in human HeLa cells assessed as early apoptotic cells at 8 uM measured after 24 hrs by Annexin-V/FITC and propidium iodide staining based flow cytometry (reference value: 1.60%)", "assay_type": "functional"}, "HeLa [16]": {"system": "HeLa", "assay": "Induction of cell cycle arrest in human HeLa cells assessed as accumulation at G2 phase at 8 uM after 24 hrs by RNase A/PI-staining based flow cytometric analysis (reference value: 30.62%)", "assay_type": "functional"}, "HeLa [17]": {"system": "HeLa", "assay": "Antitumor activity against human HeLa cells xenografted in orally dosed BALB/c mouse assessed as reduction in tumor weight measured for 24 days", "assay_type": "functional, organism-based", "settings": "dose 5-15 mg/kg, time 24.0 day"}, "HeLa [18]": {"system": "HeLa", "assay": "Induction of apoptosis in human HeLa cells at 4 to 12 uM incubated for 48 hrs by Hoechst 33342 staining based fluorescence microscopy", "assay_type": "functional, cell-based", "settings": "dose 4-12 µM"}, "[19]": {"target": "Phosphatidylinositol 4,5-bisphosphate 3-kinase catalytic subunit alpha isoform (Homo sapiens, UniProt P42336)", "sequence (P42336 whole entry, canonical isoform)": "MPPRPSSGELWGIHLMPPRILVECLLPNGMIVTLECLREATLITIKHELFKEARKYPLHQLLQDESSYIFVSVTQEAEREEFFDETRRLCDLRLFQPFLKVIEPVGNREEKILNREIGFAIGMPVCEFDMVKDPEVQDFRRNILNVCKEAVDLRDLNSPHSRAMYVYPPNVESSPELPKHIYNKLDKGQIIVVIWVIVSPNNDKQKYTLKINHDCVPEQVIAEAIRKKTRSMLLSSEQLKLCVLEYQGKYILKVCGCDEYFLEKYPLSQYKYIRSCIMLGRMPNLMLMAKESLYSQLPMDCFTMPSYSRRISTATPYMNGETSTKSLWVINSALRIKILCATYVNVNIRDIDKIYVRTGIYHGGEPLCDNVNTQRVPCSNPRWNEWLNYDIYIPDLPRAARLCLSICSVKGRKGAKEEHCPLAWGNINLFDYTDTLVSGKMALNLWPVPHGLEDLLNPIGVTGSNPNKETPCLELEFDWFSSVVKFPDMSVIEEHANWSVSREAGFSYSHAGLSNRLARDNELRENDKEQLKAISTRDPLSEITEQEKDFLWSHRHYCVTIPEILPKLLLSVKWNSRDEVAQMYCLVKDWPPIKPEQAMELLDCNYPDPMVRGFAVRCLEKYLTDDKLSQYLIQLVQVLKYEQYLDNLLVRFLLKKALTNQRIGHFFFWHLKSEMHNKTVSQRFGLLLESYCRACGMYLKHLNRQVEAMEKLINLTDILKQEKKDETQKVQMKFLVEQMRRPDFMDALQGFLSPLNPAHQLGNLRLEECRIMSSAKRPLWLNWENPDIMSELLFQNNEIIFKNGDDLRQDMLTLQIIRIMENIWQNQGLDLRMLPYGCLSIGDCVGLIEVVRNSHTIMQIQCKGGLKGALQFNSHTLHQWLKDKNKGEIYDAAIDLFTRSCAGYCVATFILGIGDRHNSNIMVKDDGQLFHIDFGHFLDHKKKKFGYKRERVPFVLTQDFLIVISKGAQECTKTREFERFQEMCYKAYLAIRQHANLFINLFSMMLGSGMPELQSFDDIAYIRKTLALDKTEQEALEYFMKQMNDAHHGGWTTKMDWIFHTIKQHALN", "assay": "Inhibition of PI3Kalpha (unknown origin) measured after 1 hr by ADP-glo plus luminescence assay"}, "HeLa [20]": {"system": "HeLa", "assay": "Induction of cell cycle arrest in human HeLa cells assessed as accumulation at G2 phase at 4 uM after 24 hrs by RNase A/PI-staining based flow cytometric analysis (reference value: 30.62%)", "assay_type": "functional"}, "HeLa [21]": {"system": "HeLa", "assay": "Induction of apoptosis in human HeLa cells assessed as increase in Bcl-2 level upto 12 uM by Western blot analysis", "assay_type": "functional, cell-based", "settings": "dose microM <=12"}, "HeLa [22]": {"system": "HeLa", "assay": "Antiproliferative activity against human HeLa cells assessed as reduction in cell viability incubated for 24 to 72 hr by MTT assay", "assay_type": "functional, cell-based", "settings": "dose microM <=12, time 24-72 hrs"}, "HeLa [23]": {"system": "HeLa", "assay": "Induction of apoptosis in human HeLa cells assessed as late apoptotic cells at 8 uM measured after 24 hrs by Annexin-V/FITC and propidium iodide staining based flow cytometry (reference value: 3.4%)", "assay_type": "functional"}, "HeLa [24]": {"system": "HeLa", "assay": "Inhibition of PI3K/AKT pathway in human HeLa cells assessed as reduction phosphorylated PI3K level upto 12 uM by Western blot analysis", "assay_type": "cell-based", "settings": "dose microM <=12"}, "HeLa [25]": {"system": "HeLa", "assay": "Induction of cell cycle arrest in human HeLa cells assessed as accumulation at S phase at 12 uM after 24 hrs by RNase A/PI-staining based flow cytometric analysis (reference value: 17.17%)", "assay_type": "functional"}, "MDA-MB-231": {"system": "MDA-MB-231", "assay": "Anticancer activity against human […] cells assessed as inhibition of cell proliferation measured after 48 hrs by MTT assay", "assay_type": "functional, cell-based", "settings": "MDA-MB-231, 48 h"}, "HeLa [26]": {"system": "HeLa", "assay": "Inhibition of colony formation in human HeLa cells measured after 24 hrs by crystal violet staining based colony formation assay", "assay_type": "functional, cell-based", "settings": "dose 4-12 µM"}, "HeLa [27]": {"system": "HeLa", "assay": "Induction of apoptosis in human HeLa cells assessed as late apoptotic cells at 12 uM measured after 24 hrs by Annexin-V/FITC and propidium iodide staining based flow cytometry (reference value: 3.4%)", "assay_type": "functional"}, "HeLa [28]": {"system": "HeLa", "assay": "Induction of apoptosis in human HeLa cells assessed as early apoptotic cells at 4 uM measured after 24 hrs by Annexin-V/FITC and propidium iodide staining based flow cytometry (reference value: 1.60%)", "assay_type": "functional"}},
  "note": "The source made the active and inactive calls. The calls are words filed in the database; no cut-off is given here.",
  "data": [
    {"compound": "O=S(=O)(c1ccc(O)cc1)N1CCN(c2nc(NCCN3CCOCC3)nc(N3CCOCC3)n2)CC1", "values": [
      {"measurement": "inhibition", "setting": "HeLa [1]", "result": "Active"},
      {"measurement": "inhibition", "setting": "Mus musculus [2]", "result": "Active"},
      {"measurement": "Activity", "setting": "HeLa [3]", "result": 20.38, "unit": "%"},
      {"measurement": "Activity", "setting": "HeLa [4]", "result": 19.52, "unit": "%"},
      {"measurement": "Activity", "setting": "HeLa [5]", "result": 2.1, "unit": "%"},
      {"measurement": "IC50", "setting": "[6]", "result": 8.45, "unit": "nM"},
      {"measurement": "Activity", "setting": "HeLa [7]", "result": "Dose-dependent effect"},
      {"measurement": "Activity", "setting": "HeLa [8]", "result": 75.03, "unit": "%"},
      {"measurement": "inhibition", "setting": "Mus musculus [9]", "result": "Active"},
      {"measurement": "Activity", "setting": "HeLa [10]", "result": "Active"},
      {"measurement": "IC50", "setting": "HeLa [11]", "result": 2210, "unit": "nM"},
      {"measurement": "IC50", "setting": "[12]", "result": 24.6, "unit": "nM"},
      {"measurement": "inhibition", "setting": "Mus musculus [13]", "result": "Active"},
      {"measurement": "IC50", "setting": "MCF7", "result": 16300, "unit": "nM"},
      {"measurement": "Activity", "setting": "HeLa [14]", "result": 14.32, "unit": "%"},
      {"measurement": "Activity", "setting": "HeLa [15]", "result": 1.84, "unit": "%"},
      {"measurement": "Activity", "setting": "HeLa [16]", "result": 15.43, "unit": "%"},
      {"measurement": "Activity", "setting": "HeLa [17]", "result": "Dose-dependent effect"},
      {"measurement": "Activity", "setting": "HeLa [18]", "result": "Active"},
      {"measurement": "IC50", "setting": "[19]", "result": 3.41, "unit": "nM"},
      {"measurement": "Activity", "setting": "HeLa [20]", "result": 20.38, "unit": "%"},
      {"measurement": "Activity", "setting": "HeLa [21]", "result": "Active"},
      {"measurement": "Activity", "setting": "HeLa [22]", "result": "Dose-dependent effect"},
      {"measurement": "Activity", "setting": "HeLa [23]", "result": 16.94, "unit": "%"},
      {"measurement": "inhibition", "setting": "HeLa [24]", "result": "Dose-dependent effect"},
      {"measurement": "Activity", "setting": "HeLa [25]", "result": 10.65, "unit": "%"},
      {"measurement": "IC50", "setting": "MDA-MB-231", "result": 15800, "unit": "nM"},
      {"measurement": "Activity", "setting": "HeLa [26]", "result": "Dose-dependent effect"},
      {"measurement": "Activity", "setting": "HeLa [27]", "result": 17.98, "unit": "%"},
      {"measurement": "Activity", "setting": "HeLa [28]", "result": 2.71, "unit": "%"}
    ]}
  ]
}
